Reference: patent publication US12338216B2, “Solvates of abscisic acid and liquid compositions containing abscisic acid” (Clariant International Ltd., priority 2019, dated 2025)

Tests used:
[1] = test system: poinsettia plants, e.g. the Merlot variety; assay: Phytotoxicity / plant compatibility on indicator plants; type: in vivo; conditions: 1 g/L; within one day
Excerpt: The plant compatibility of the abscisic acid was checked using indicator plants such as poinsettia plants, e.g. the Merlot variety. If no necrosis or other phytotoxicity symptoms such as leaf curl-up or deformation in any case were observed the substance is considered plant compatible and not phytotoxic.

[2] = room temperature; cited from earlier work
[3] = test system: enzymatically isolated cuticles of pear tree leaves; assay: Penetration of abscisic acid through enzymatically isolated cuticles of pear tree leaves (HPLC); type: in vitro ADME; conditions: active ingredient 0.1 g/L in spray liquid, tap water, n = 8-10
Procedure: In this test, the penetration of abscisic acid through enzymatically isolated cuticles of pear tree leaves was measured. The principle of the method has been published and described in detail e.g. in WO-A-2005/194844 or WO2017211572 A1.
To determine the penetration, 10 μl a spray liquor of the composition mentioned in the examples were applied to the outer side of a cuticle. In the spray liquors tap water was used in each case.
After application of the spray liquors was allowed to evaporate in each case the water, then in each case the chambers were inverted and placed in thermostated troughs, with air being blown at a defined temperature and humidity to the outside of the cuticle. The incipient penetration therefore took place at a relative humidity of 56% and a set temperature at 10° C. and 25° C. The penetration of active ingredients was determined by High Performance Liquid Chromatography (HPLC).

| Compound | Phytotoxicity symptoms [1] | Highest concentration that can be achieved in water [2] | Mean penetration for abscisic acid after time ([3]; 10° C./56% rH, 1 day) [%] | Mean penetration for abscisic acid after time ([3]; 10° C./56% rH, 2 day) [%] | Mean penetration for abscisic acid after time ([3]; 25° C./56% rH, 1 day) [%] | Mean penetration for abscisic acid after time ([3]; 25° C./56% rH, 2 day) [%] |
| --- | --- | --- | --- | --- | --- | --- |
| ethoxylated lauryl alcohol | strong distinct necrosis |  |  |  |  |  |
| CC1=CC(=O)CC(C)(C)[C@@]1(O)/C=C/C(C)=C\C(=O)O [abscisic acid, (2Z,4E)-5-[(1S)-1-hydroxy-2,6,6-trimethyl-4-oxocyclohex-2-en-1-yl]-3-methylpenta-2,4-dienoic acid] |  | about 3000 ppm | 5.3 | 8.2 | 1.4 | 2.2 |
